Molecular target: T1, AaOR8/AaOR7 protein complex (Aedes aegypti, UniProt Q16MN0)
T1 sequence (Q16MN0 32-422): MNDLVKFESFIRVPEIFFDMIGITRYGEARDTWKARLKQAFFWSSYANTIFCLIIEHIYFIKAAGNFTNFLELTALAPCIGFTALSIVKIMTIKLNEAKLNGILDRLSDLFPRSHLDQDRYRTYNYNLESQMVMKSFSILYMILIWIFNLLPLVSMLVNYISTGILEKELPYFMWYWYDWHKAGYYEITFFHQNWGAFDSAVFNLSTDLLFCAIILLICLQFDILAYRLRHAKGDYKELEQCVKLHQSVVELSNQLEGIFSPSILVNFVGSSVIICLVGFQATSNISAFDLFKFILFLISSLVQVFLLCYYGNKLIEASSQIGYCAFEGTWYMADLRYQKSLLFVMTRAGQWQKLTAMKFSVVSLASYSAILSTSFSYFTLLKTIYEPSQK
T1 sequence (Q178U6 1-478 partner): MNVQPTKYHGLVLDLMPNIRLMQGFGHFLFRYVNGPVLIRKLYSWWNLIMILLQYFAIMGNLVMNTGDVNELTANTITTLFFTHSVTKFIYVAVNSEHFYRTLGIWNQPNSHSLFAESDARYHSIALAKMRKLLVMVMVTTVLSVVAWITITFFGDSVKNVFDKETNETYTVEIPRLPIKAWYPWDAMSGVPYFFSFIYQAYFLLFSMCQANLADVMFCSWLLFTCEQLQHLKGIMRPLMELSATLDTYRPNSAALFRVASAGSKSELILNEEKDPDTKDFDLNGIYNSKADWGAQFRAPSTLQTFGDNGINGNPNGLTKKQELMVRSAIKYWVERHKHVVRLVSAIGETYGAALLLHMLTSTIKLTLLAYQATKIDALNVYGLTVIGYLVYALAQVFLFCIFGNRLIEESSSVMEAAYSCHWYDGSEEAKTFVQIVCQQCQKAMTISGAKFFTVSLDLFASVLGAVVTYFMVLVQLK
Assay: Two-microelectrode voltage clamp of Xenopus oocytes co-expressing AaOr8 and AaOr7; odorant-induced whole-cell currents
Format: cell-based
Settings: Xenopus oocytes co-expressing AaOR8 and AaOR7, holding potential −80 mV, 8 sec odorant exposure, non-linear regression curve fit; read-out: EC50 (half maximal effective concentration) of AaOR8
Experimental: Along with AaOr8, we co-expressed AaOr7 in Xenopus oocytes and electrophysiological responses (Fig. 1B) to each enantiomer were measured using the two-microelectrode voltage clamp technique. […] We established the concentration-response relationships for each compound (Fig. 1C) and their associated half maximal effective concentration (EC50) as a sensitivity criterion. […] Part of the response to the (S)-(+)-enantiomer may have been caused by the presence of trace amounts (1 part per thousand) of the (R)-(—)-enantiomer (see Material & Methods).
AaOr7 and AaOr8 cRNAs were synthesized from linearized pSP64DV expression vectors (Dr. Zwiebel, Vanderbilt University) using the mMESSAGE mMACHINE SP6 kit (Ambion). Following mechanical disruption of the Xenopus ovaries, stage […] oocytes were treated for 30 min at room temperature under 150 rpm shaking with a 2 mg/mL collagenase (SIGMA, C6895) solution in OR-2 buffer (5 mM HEPES, 1 mM Na2HPO4, 82.5 mM NaCl, and 2.5 mM MgCl2 [pH 7.6]). All procedures were performed in accordance with the NIH Institutional Animal Care and Use Committee and NIH guidelines. Oocytes were subsequently washed 5 times with OR-2 buffer, 5 times with MBSH buffer (10 mM HEPES, 2.4 mM NaHCO3, […], 1 mM KCl, 0.82 mM MgSO4, 0.41 mM CaCl2 and 0.33 mM (CaNO3)2, [pH 7.6]), 5 times with MBSH supplemented with 50 µg/ML gentamycin and 5 times with Ringer's buffer (96 mM NaCl, 2 mM KCl, 5 mM MgCl2, 6H2O, 5 mM HEPES and 0.8 mM CaCl2 [pH 7.6]) supplemented with 5% heat-inactivated horse serum, 50 µg/mL tetracycline, 100 µg/mL streptomycin and 550 µg/mL sodium pyruvate. Individual oocytes were allowed to recover overnight prior to injection with 10 ng of each cRNA and were recorded 4 to 6 days post-injection.
Whole-cell currents were recorded using the two-microelectrode voltage clamp technique, [58]. Odorants were dissolved in dimethyl sulfoxide (DMSO) at a 1∶10 ratio so that stock solutions could be made. Prior to recording, stock solutions were diluted in Ringer's solution [pH 7.6] (96 mM NaCl, 2 mM KCl, 5 mM MgCl2, 5 mM HEPES and 0.8 mM CaCl2) to the indicated concentrations before being applied to Xenopus oocytes in a RC-3Z oocyte recording chamber (Warner Instruments). Oocytes were continuously perfused by either pure Ringer's solution or exposed for 8 sec to serial dilutions of odorants dissolved in Ringer's solution. Odorant-induced currents were recorded with an OC-725C oocyte clamp (Warner Instruments) at a holding potential of −80 mV. Between stimulations, oocytes were allowed to return to their membrane resting potential by washing out the odorants using pure Ringer's solution. Data acquisition and analysis were carried out with Digidata 1440A and pCLAMP10 software (Axon Instruments).
Statistical analyses (GraphPad Prism5 Software, Inc.) of the logEC50 means were performed using an ordinary one-way ANOVA in conjunction with the Tukey Kramer multiple comparison post test (95% confidence interval). […] In all figures, graphical results are shown as means and standard error of the mean for a minimum of six independent oocytes. EC50 values for individual compounds were extrapolated using the non-linear regression curve fit function provided in Prism5.

Row | SMILES | EC50 [µM]
1 | C=CC(O)CCCC (stereo not drawn) [1-Hepten-3-ol] | 17
2 | C=CC(O)CCCCCC (stereo not drawn) [1-Nonen-3-ol] | 5.14
3 | C=CC(=O)CCCCC [1-Octen-3-one] | 23
4 | C=CCC(O)CCCC (stereo not drawn) [1-Octen-4-ol] | 39.1
5 | CCCCCC(O)CC (stereo not drawn) [3-Octanol] | 5.82
6 | C=C[C@H](O)CCCCC [(R)-(—)-1-octen-3-ol] | 0.158
7 | C=C[C@@H](O)CCCCC [(S)-(+)-1-octen-3-ol] | 17.2

Test system: Apis mellifera OR11 (AmOR11)
Assay: not given
Settings: Xenopus oocytes; cited from earlier work

Row | SMILES | concentration range of AmOR11 response
8 | CC(=O)CCCCCC=CC(=O)O [9-oxo-2-decenoic acid] | nanomolar range

Test system: Bombyx mori OR1 (BmOR1)
Assay: not given
Settings: oocyte expression system; cited from earlier work

Row | SMILES | concentration range of BmOR1 response
9 | CCC/C=C\C=C\CCCCCCCCCO [bombykol] | micromolar range
